{"source": "patent US8709434B2", "about": "“Compositions for inhibiting NADPH oxidase activity” (PCB Associates, Inc., priority 2006, dated 2014)", "key": {"[1]": {"system": "NADPH oxidase", "assay": "NADPH-induced superoxide production by cellular NADPH oxidase, lucigenin chemiluminescence, human renal mesangial cells", "format": "cell-based", "details": "for inhibition of NADPH oxidase superoxide production: 300 nM to 20 μM for 1 h", "method": "(§1) Human cell cultures derived from renal mesangial tissue were incubated with NADPH to induce superoxide production by cellular NADPH oxidase. Superoxide production was quantified by lucigenin chemiluminescence. Lucigenin is a specific detector of superoxide. […] Phycocyanobilin (PCB, FIG. 3A) or biliverdin (BVD, FIG. 3B) were added to the NADPH-treated cell cultures in concentrations ranging from 300 nM to 20 μM. Biliverdin is another known inhibitor of NADPH oxidase.\n(§2) Human mesangial cells were purchased from Clonetics (East Rutherford, N.J.). The smooth muscle cells were cultured in a Mesangial Cell Growth Medium (Clonetics) containing 5% fetal calf serum. The cells from 2nd to 5th passages were used in the experiments. Cellular production of superoxide anion was determined by the lucigenin method. For the experiments, cells were detached with trypsin/EDTA and resuspended in modified HEPES buffer containing 140 mM NaCl, 5 mM KCl, 0.8 mM MgCl2, 1.8 mM CaCl2, 1 mM Na2HPO4, 25 mM HEPES, and 1% glucose (pH7.2), and incubated with or without various concentrations of phycocyanobilin (PCB) or biliverdin (BVD) from 300 nM to 20 μM for 1 h. Immediately before recording, NADPH (100 μM) and dark-adapted lucigenin (5 μM) were added to cell suspension. Light emission was recorded every minute for 20 min and was expressed as mean arbitrary light unit/min. Experiments were performed in triplicate. In experiments with inhibition of NAD(P)H oxidase, diphenylene iodonuim cloride (DPI, 10^−5 M), an inhibitor of NAD(P)H oxidase, was added 10 min before NADPH addition and recording of chemiluminescence."}, "[2]": {"system": "NADPH oxidase", "assay": "NADPH-induced superoxide production by cellular NADPH oxidase, lucigenin chemiluminescence, human aortic smooth muscle cells", "format": "cell-based", "details": "for inhibition of NADPH oxidase superoxide production: 300 nM to 20 μM for 1 h", "method": "as §1, with “aortic smooth muscle” for “renal mesangial tissue”, “2A)” for “3A)”, “2B)” for “3B)”\nas §2, with “aortic smooth muscle” for “mesangial”, “Smooth Muscle” for “Mesangial”, “chemiluminescence. This is the first experiment to see the effect of purified phycocyanobilin on NADPH oxidase activity using human aortic smooth muscle cells.” for “chemiluminescence.”"}, "[3]": {"system": "NADPH oxidase", "assay": "NADPH-induced superoxide production by cellular NADPH oxidase, lucigenin chemiluminescence, human aortic endothelial cells", "format": "cell-based", "details": "for inhibition of NADPH oxidase superoxide production: 300 nM to 20 μM for 1 h", "method": "as §1, with “aortic endothelium” for “renal mesangial tissue”, “1A)” for “3A)”, “1B)” for “3B)”\nas §2, with “aortic endothelial” for “mesangial”, “endothelial cell” for “smooth muscle cells”, “endothelial cell basal medium” for “a Mesangial Cell Growth Medium”, “supplemented with hFGF-B, VEGF, IGF-1, ascorbic acid hEGF, hydrocortisone and 2%” for “containing 5%”, “chemiluminescence. This is the first experiment to see the effect of purified phycocyanobilin on NADPH oxidase activity using human aortic endothelial cells.” for “chemiluminescence.”"}, "[4]": {"details": "compared with bilirubin; cited from earlier work"}, "[5]": {"details": "rats; cited from earlier work"}, "[6]": {"details": "oral administration, compared with bilirubin; cited from earlier work"}, "[7]": {"details": "mice, concurrent administration; cited from earlier work"}, "[8]": {"details": "feeding to cholesterol-fed hamsters; cited from earlier work"}, "[9]": {"details": "oral, mice and rats, dose range 50-300 mg/kg/day; cited from earlier work"}, "[10]": {"details": "mice, oral pre-treatment; cited from earlier work"}, "[11]": {"details": "DPI 10^−5 M added 10 min before NADPH (100 μM)"}}}
{"compound": "c1ccc2c(c1)[I+]c1ccccc1-2", "note": "[Diphenyleneiodonium, diphenylene iodonuim cloride]", "values": [{"measurement": "inhibition of the excess superoxide production induced by added NADPH", "setting": "[1]; [11]", "result": "completely inhibit"}, {"measurement": "inhibition of the excess superoxide production induced by added NADPH", "setting": "[2]; [11]", "result": "completely inhibit"}, {"measurement": "inhibition of the excess superoxide production induced by added NADPH", "setting": "[3]; [11]", "result": "completely inhibit"}]}
{"compound": "C=CC1=C(C)/C(=C/C2=NC(=C\\c3[nH]c(/C=C4\\NC(=O)C(C)=C4C=C)c(C)c3CCC(=O)O)/C(CCC(=O)O)=C2C)NC1=O", "note": "[biliverdin]", "values": [{"measurement": "inhibition of NADPH oxidase superoxide production", "setting": "[1]", "result": "dose-dependent inhibition"}, {"measurement": "inhibition of NADPH oxidase superoxide production", "setting": "[2]", "result": "dose-dependent inhibition"}, {"measurement": "solubility", "setting": "[4]", "result": "far more soluble than bilirubin"}, {"measurement": "ischemia-reperfusion damage of transplanted organs", "setting": "[5]", "result": "ameliorates the ischemia-reperfusion damage"}, {"measurement": "rejection of cardiac or renal allografts", "setting": "[5]", "result": "helps to prevent the rejection"}, {"measurement": "bioavailability", "setting": "[6]", "result": "greater bioavailability than bilirubin"}, {"measurement": "inhibition of NADPH oxidase superoxide production", "setting": "[3]", "result": "dose-dependent inhibition"}, {"measurement": "colitis induced with oral dextran sodium sulfate", "setting": "[7]", "result": "substantially ameliorated"}]}
{"compound": "phycocyanin", "values": [{"measurement": "production of arterial fatty streaks", "setting": "[8]", "result": "inhibit the production of arterial fatty streaks quite markedly"}, {"measurement": "anti-inflammatory effects", "setting": "[9]", "result": "dose-dependent anti-inflammatory effects"}, {"measurement": "endotoxin-induced shock (severe hypotension and death)", "setting": "[10]", "result": "considerable ameliorated"}]}
{"compound": "phycocyanobilin", "values": [{"measurement": "inhibition of NADPH oxidase superoxide production", "setting": "[1]", "result": "dose-dependent inhibition"}, {"measurement": "inhibitory effect on NADPH oxidase activity compared with DPI", "setting": "[1]; 20 μM", "result": "less than that of DPI, but was statistically significant"}, {"measurement": "inhibition of NADPH oxidase superoxide production", "setting": "[2]", "result": "dose-dependent inhibition"}, {"measurement": "inhibitory effect on NADPH oxidase activity compared with DPI", "setting": "[2]; 20 μM", "result": "equivalent to that of DPI"}, {"measurement": "inhibition of NADPH oxidase superoxide production", "setting": "[3]", "result": "dose-dependent inhibition"}, {"measurement": "inhibitory effect on NADPH oxidase activity compared with DPI", "setting": "[3]; 20 μM", "result": "equivalent to that of DPI"}]}
